Assay results taken from patent US20130251678A1, “BID DOSAGE REGIMEN FOR DEB025” (NOVARTIS AG, priority 2010, published 2013).

Assays:
Type in all cases: in vivo, human
HCV Genotype 1 [1] = assay: Clinical study in HCV Genotype 1 non responder patients: decline in HCV RNA from baseline; details: with peg-IFNα2a plus RBV
Excerpt: HCV RNA levels can be measured using commercially available methods. As used herein, LOD means limit of detection and LOQ means limit of quantification of HCV RNA levels. For example, when using the COBAS® TaqMan® HCV Test, v2.0 (Roche Diagnostics) for assessment of HCV RNA levels, LOQ of 25 IU/ml (1.398 log10) and LOD of 10 IU/ml (1 log10) have been reported.
The efficacy of the therapy regimen may be monitored using standard protocols. Treatment may be followed by determinations of HCV in serum and measurement of serum ALT (alanine-aminotransferase) levels. For example, the patients may be assessed for the presence of HCV RNA in their plasma. HCV RNA (IU/mL) can be measured at regular intervals during the treatment, e.g., at Day 1 (pre-dose and 4, 8, and 12 hours post-dose) and pre-dose at Day 2, Day 3, Day 8, Day 15, Day 29, and at Week 12, Week 24, Week 36, Week 48, Week 72 (when applicable), and at follow up. In addition, the HCV strains in the patient can be sequenced and assessed for identification of mutations selecting for resistance.
In this hard to treat patient population, the 400 mg BID dose provided greater decline in HCV RNA from baseline (−1.41 log10 IU/ml) than the 800 mg QD dose (−0.70 log10 IU/ml). […]

[2] = Observed alisporivir Cmin in the HCV Genotype 1 non responder patient study; details: first week of treatment
Excerpt: As used herein, AUC refers to Area Under the Curve in [hr ng/mL] or area under the concentration vs time curve indicating the integrated quantity of analyte or drug (the serum concentration curve) after dosing; Cmax refers to the maximum concentration of the analyte or drug in [ng/mL] achieved after dosing; Cmin refers to the minimum concentration of the analyte or drug in [ng/mL] achieved after dosing

HCV Genotype 1 [3] = assay: Phase 2 study of genotype 1 treatment-naive patients: sustained virologic response (SVR); details: 600 mg BID for one week followed by 600 mg QD, 48 week treatment duration, combined with peg-IFNα2a
Excerpt: The virological response parameters are: rapid virologic response at treatment week 4 (RVR 4) defined by undetectable serum HCV-RNA at treatment week 4; early virological response (EVR), defined by at least 2 log10 IU/mL reduction in HCV-RNA compared to baseline (partial EVR) or undetectable serum HCV-RNA (complete EVR) at treatment week 12; sustained virological response (SVR24), defined as absence of HCV-RNA from serum by a sensitive Polymerase Chain Reaction (PCR) assay 24 weeks following end of therapy or the HCV RNA is undetectable (by LOD) 24 weeks after end of treatment; End of Treatment Response (ETR): HCV RNA undetectable (by LOD) at treatment end (completed or prematurely discontinued).

With `C/C=C/C[C@@H](C)[C@@H](O)[C@H]1C(=O)N[C@@H](CC)C(=O)N(C)[C@H](C)C(=O)N(CC)[C@@H](C(C)C)C(=O)N[C@@H](C(C)C)C(=O)N(C)[C@@H](CC(C)C)C(=O)N[C@@H](C)C(=O)N[C@H](C)C(=O)N(C)[C@@H](CC(C)C)C(=O)N(C)[C@@H](CC(C)C)C(=O)N(C)[C@@H](C(C)C)C(=O)N1C` [alisporivir, Alisporivir] the “decline in HCV RNA from baseline” value (HCV Genotype 1 [1]; 400 mg BID during first week of treatment) was −1.41 log10 IU/ml, the “decline in HCV RNA from baseline” value (HCV Genotype 1 [1]; 800 mg QD during first week of treatment) was −0.70 log10 IU/ml and the “median observed Cmin” value ([2]; 400 mg BID) was 175 ng/mL. For the same compound, the “median observed Cmin” value ([2]; 800 mg QD) was 148 ng/mL and the “rates of achievement of sustained virologic response (SVR) versus peg-IFNα2a” value (HCV Genotype 1 [3]) was “superior”.
